Literature values as cited in patent publication US7064108B2 (Merck & Co., Inc., priority 2002, dated 2006).

How the values were obtained:
[1] = test system: head lice (Pediculosis capitis); conditions: single oral 200 ug/kg dose, 26 patients
head lice [2] = conditions: after a single topical application
head lice [3] = conditions: single oral dose of 100–200 ug/kg
[4] = amicrofilaremic population in mass treatment programs
Onchocerca volvulus [5] = test system: Onchocerca volvulus
[6] = test system: glutamate-gated chloride ion channels; conditions: invertebrate nerve and muscle cells
[7] = test system: mammalian ligand-gated chloride channels
Onchocerca volvulus [8] = conditions: after one month; single oral dose approximately 150 ug/kg

Molecule | plasma half life (metabolite of ivermectin) | effect against head lice [1] | plasma half-life (in vivo) | effect on head lice (head lice [2]) | effect on head lice infestation (head lice [3]) | overall incidences of adverse experiences [4] | activity against adult form (Onchocerca volvulus [5]; adult form of Onchocerca volvulus) | activity against tissue microfilariae (Onchocerca volvulus [5]; tissue microfilariae of Onchocerca volvulus) | affinity for glutamate-gated chloride ion channels [6] | affinity for mammalian ligand-gated chloride channels [7] | dermal microfilarial density (Onchocerca volvulus [8])
Nc1nc2cccc(-c3ccc(CN4CCS(=O)(=O)CC4)cc3)n2n1 [metabolite] | about 3 days |  |  |  |  |  |  |  |  |  | 
Ivermectin |  | effectiveness | 15 to 20 h | absolute curative effect | significant, but not absolute, effect | 1% | not against the adult form | active | high affinity | low affinity | near zero
